Where a name gives a salt, the structure may show the parent alone.
Experiments:
[1] = biological target: T1, Recombinant human integrin αVβ5 (Homo sapiens, UniProt P06756+P18084); test: Solid Phase Receptor Assay (SPRA) for αVβ5 function; type: binding; conditions: plate-bound human vitronectin
T1 construct: purchased R&D Systems 2528-AV
Procedure: D. Solid Phase Receptor Assay (SPRA) for αVβ5 Function
Wells were washed 3 times with 150 μL TBS+ and then 150 μL of blocking buffer (TBS+ with 1% bovine serum albumin, Sigma A7906) was added. The plate was incubated for 1 hr at 37° C. and then washed 3× with TBS+ buffer. […] Compounds were diluted to 20 μM and then 1 μL was added to each well of the plate according to a standard template with each sample repeated in triplicate. After incubation for two hours at room temperature, the plate was washed 3× with 150 μL of TBS+ buffer. To each well, 50 μl of biotinylated anti-αV antibody (R&D Systems, BAF1219) at 0.5 μg/mL in TBS+/0.1% BSA at 0.5 μg/mL were added and the plate covered and incubated for 1 hr at room temperature. After washing the plate 3× with 150 μL of TBS+ buffer, 50 μL of streptavidin-conjugated horseradish peroxidase (R&D Systems, DY998) diluted in TBS+ blocking buffer were added to the wells and the plate incubated for 20 min at room temperature. The plate was washed 3× with TBS+ buffer followed by 50 μL of TMB substrate (Sigma T4444) added to each well in the dark and the plate incubated for 5 min at room temperature. 25 μL of 1.0 M phosphoric acid was added as a stop solution and the plates were read at 450 nm using a Spectramax plate reader.

[2] = biological target: T2, Recombinant human integrin αVβ3 (Homo sapiens, UniProt P05106+P06756); test: Solid Phase Receptor Assay for αVβ3 function; type: binding; conditions: plate-bound human vitronectin; read-out: αVβ3 SPRA IC50
T2 construct: purchased R&D Systems 3050-AV
Procedure: C. […] Wells were washed 3 times with 150 μL TBS+ and then 150 μL of blocking buffer (TBS+ with 1% bovine serum albumin, Sigma A7906) was added. The plate was incubated for 1 hr at 37° C. and then washed 3× with TBS+ buffer. […] Compounds were diluted to 20 μM and then 1 μL was added to each well of the plate according to a standard template with each sample repeated in triplicate. After incubation for two hours at room temperature, the plate was washed 3× with 150 μL of TBS+ buffer. To each well, 50 μL of biotinylated anti-αV antibody (R&D Systems, BAF1219) at 0.5 μg/mL in TBS+/0.1% BSA were added and the plate covered and incubated for 1 hr at room temperature. After washing the plate 3× with 150 μL of TBS+ buffer, 50 μL of streptavidin-conjugated horseradish peroxidase (R&D Systems, DY998) diluted in TBS+ blocking buffer were added to the wells and the plate incubated for 20 min at room temperature. The plate was washed 3× with TBS+ buffer followed by 50 μL of TMB substrate (Sigma, T4444) added to each well in the dark and the plate was incubated for 25 min at room temperature. 25 μL of 1.0 M phosphoric acid was added as a stop solution and the plates were read at 450 nm using a Spectramax plate reader.

T1 sequence (P06756 31-992 limits assumed): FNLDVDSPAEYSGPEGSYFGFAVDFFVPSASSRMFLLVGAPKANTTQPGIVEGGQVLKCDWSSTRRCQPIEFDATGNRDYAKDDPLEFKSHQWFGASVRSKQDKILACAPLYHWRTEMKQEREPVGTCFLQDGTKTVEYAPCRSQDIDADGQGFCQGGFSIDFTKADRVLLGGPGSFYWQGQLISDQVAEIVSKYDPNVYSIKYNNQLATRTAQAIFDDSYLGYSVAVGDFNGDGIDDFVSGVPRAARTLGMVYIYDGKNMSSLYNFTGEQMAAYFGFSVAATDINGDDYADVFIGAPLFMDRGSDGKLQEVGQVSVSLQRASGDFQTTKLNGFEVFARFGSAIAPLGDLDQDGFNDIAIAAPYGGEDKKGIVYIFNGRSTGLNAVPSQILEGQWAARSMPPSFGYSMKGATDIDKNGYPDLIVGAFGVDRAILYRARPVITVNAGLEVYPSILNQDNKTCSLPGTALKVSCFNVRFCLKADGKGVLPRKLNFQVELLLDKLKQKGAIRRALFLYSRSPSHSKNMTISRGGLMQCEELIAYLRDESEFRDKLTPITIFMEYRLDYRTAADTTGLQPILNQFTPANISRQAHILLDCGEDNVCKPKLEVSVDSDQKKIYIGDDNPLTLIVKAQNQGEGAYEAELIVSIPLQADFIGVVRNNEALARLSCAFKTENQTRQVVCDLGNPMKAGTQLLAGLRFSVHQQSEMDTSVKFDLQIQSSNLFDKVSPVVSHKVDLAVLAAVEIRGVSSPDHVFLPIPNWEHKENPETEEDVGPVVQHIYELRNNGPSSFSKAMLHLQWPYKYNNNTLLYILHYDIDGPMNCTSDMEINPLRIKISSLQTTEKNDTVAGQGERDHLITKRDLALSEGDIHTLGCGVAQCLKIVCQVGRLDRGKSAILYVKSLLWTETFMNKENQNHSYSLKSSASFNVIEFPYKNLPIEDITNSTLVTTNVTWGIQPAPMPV
T1 sequence (P18084 24-719 limits assumed): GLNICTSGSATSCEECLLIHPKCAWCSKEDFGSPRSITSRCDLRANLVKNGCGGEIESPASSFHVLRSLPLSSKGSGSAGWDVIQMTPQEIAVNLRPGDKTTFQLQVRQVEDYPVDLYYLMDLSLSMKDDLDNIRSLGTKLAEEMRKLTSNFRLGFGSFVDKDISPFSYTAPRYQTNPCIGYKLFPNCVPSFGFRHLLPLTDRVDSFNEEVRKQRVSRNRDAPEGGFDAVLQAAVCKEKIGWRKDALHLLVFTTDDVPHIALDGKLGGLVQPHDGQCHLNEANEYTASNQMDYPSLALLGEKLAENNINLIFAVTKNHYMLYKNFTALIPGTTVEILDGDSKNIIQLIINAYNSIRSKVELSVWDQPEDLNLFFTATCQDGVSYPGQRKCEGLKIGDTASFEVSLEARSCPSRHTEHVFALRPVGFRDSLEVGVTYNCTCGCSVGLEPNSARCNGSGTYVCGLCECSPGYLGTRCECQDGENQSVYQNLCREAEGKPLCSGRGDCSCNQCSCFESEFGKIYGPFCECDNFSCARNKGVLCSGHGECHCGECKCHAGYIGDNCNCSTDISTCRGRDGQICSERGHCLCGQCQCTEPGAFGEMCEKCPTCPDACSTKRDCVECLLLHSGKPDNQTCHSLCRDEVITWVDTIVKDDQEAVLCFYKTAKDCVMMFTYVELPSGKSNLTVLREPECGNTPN
T2 sequence (P06756 31-992 limits assumed): as the sequence (P06756 31-992 limits assumed) above
T2 sequence (P05106 27-718 limits assumed): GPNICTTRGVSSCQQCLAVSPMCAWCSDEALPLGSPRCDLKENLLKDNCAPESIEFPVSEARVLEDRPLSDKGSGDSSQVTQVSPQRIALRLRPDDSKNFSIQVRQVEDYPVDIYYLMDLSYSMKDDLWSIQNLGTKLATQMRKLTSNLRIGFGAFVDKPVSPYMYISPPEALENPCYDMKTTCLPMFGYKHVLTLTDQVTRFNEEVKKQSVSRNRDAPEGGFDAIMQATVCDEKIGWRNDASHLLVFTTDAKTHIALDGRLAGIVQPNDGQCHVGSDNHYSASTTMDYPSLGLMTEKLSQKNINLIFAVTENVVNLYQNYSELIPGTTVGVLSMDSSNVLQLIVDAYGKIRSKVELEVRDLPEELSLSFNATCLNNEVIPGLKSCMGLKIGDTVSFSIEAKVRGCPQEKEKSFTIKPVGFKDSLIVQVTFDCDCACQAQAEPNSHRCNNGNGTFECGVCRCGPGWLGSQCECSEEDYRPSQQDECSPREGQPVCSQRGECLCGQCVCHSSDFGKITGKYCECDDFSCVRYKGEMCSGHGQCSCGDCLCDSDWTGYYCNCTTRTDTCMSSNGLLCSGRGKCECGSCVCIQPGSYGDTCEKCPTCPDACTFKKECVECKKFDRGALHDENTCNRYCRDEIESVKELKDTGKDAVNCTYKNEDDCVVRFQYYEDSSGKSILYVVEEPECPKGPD

SMILES	IC50 [1] [nM]	IC50 [2] [nM]
Cn1nc(CC(CC(=O)O)c2cc(C(C)(C)C#N)cc(C(C)(C)C#N)c2)cc1OCCc1ccc2c(n1)NCCC2 (stereo not shown) [Example 41, 3-(3,5-bis(2-cyanopropan-2-yl)phenyl)-4-(1-methyl-5-(2-(5,6,7,8-tetrahydro-1,8-naphthyridin-2-yl)ethoxy)-1H-pyrazol-3-yl)butanoic acid trifluoroacetate]	5	9
COc1ccc(C2=CCOCC2)cc1C(CC(=O)O)Cc1cc(OCCc2ccc3c(n2)NCCC3)n(C)n1 (stereo not shown) [Example 42]	14	58
COc1ccc(C2CCOCC2)cc1C(CC(=O)O)Cc1csc(CCCc2ccc3c(n2)NCCC3)n1 (stereo not shown) [Example 43, 3-(2-methoxy-5-(tetrahydro-2H-pyran-4-yl)phenyl)-4-(2-(3-(5,6,7,8-tetrahydro-1,8-naphthyridin-2-yl)propyl)thiazol-4-yl)butanoic acid]	61	520
COc1ccc(C(CC(=O)O)Cc2cc(OCCc3ccc4c(n3)NCCC4)n(C)n2)cc1F (stereo not shown) [Example 44, 3-(3-fluoro-4-methoxyphenyl)-4-(1-methyl-5-(2-(5,6,7,8-tetrahydro-1,8-naphthyridin-2-yl)ethoxy)-1H-pyrazol-3-yl)butanoic acid]	0.22	2.3
COCC1(c2ccc(OC)c(C(CC(=O)O)Cc3cc(OCCc4ccc5c(n4)NCCC5)n(C)n3)c2)CCOCC1 (stereo not shown) [Example 45, 3-(2-methoxy-5-(4-(methoxymethyl)tetrahydro-2H-pyran-4-yl)phenyl)-4-(1-methyl-5-(2-(5,6,7,8-tetrahydro-1,8-naphthyridin-2-yl)ethoxy)-1H-pyrazol-3-yl)butanoic acid]	1200	1200
COc1ccc(C2CCOCC2)cc1C(CC(=O)O)Cc1cc(OCCc2ccc3c(n2)NCCC3)n(C)n1 (stereo not shown) [Example 46, 3-(2-methoxy-5-(tetrahydro-2H-pyran-4-yl)phenyl)-4-(1-methyl-5-(2-(5,6,7,8-tetrahydro-1,8-naphthyridin-2-yl)ethoxy)-1H-pyrazol-3-yl)butanoic acid]	87	310
Cn1nc(C[C@@H](CC(=O)O)c2cc3c(c(C(C)(C)C)c2)OCO3)cc1OCCc1ccc2c(n1)NCCC2 [Example 47]	0.067	1.8
COCC1(c2ccc(OC)c([C@H](CC(=O)O)Cc3cc(OCCc4ccc5c(n4)NCCC5)n(C)n3)c2)CCOCC1 [Example 48, (S)-3-(2-methoxy-5-(4-(methoxymethyl)tetrahydro-2H-pyran-4-yl)phenyl)-4-(1-methyl-5-(2-(5,6,7,8-tetrahydro-1,8-naphthyridin-2-yl)ethoxy)-1H-pyrazol-3-yl)butanoic acid]	770	690

— US20210284638A1 (Saint Louis University, priority 2018, published 2021)
